Source: US7192931B2, “Treatment of demyelinating diseases” (Neuren Pharmaceuticals Ltd., priority 2000, dated 2007)

Assays:
[1] = system: C57Bl/6 mice with MOG35-55 peptide-induced EAE; test: Expanded disability status scale for EAE treated mice; assay type: in vivo, mouse; conditions: for Maximal disability score: Alertness / Maximal disability score: Bladder function / Maximal disability score: Eye movements / Maximal disability score: Motor (grip)* / Maximal disability score: Other signs (shine hairs and loose skin) / Maximal disability score: Sensory* Light touch / Maximal disability score: Sensory* Pain / Maximal disability score: Spontaneous mobility / Maximal disability score: Tone* / Maximal disability score: Tremor / Maximal disability score: Vision (including pupillary reflex) / Total expanded disability scale: mean values
Procedure: (§1) C57Bl/6 mice (8–10 week old) were injected subcutaneously in one flank with 300 μg of MOG35-55 peptide ([…]: SEQ ID NO:1) synthesized by Mimotapes Pty Ltd, Clayton, Australia and emulsified in CFA containing 500 μg of Mycobacterium tuberculosis H37Ra (DIFCO Laboratories, Detrit, USA). They also received 500 ng of pertussis toxin (List Biological Laboratories, CA, USA) in 200 μl PBS intravenously via the tail vein, followed 48 hours later by a second dose. A second injection of MOG peptide was given in the absence of pertussis toxin one week later in the opposite flank, as described previously (Kanwar et al., 2000b).
(§2) Two treatment protocols were employed, involving the treatment of early disease, versus advanced disease. For early disease, reagents were administered at day 35 (following MOG injection). Antibody was administered thrice on alternate days, whereas neuroprotectors were given daily for 6 days, where 50% of reagent was given ip and 50% iv. In the treatment of advanced disease, therapy as above was initiated at day 60, with either three or eight anti-MAdCAM-1 mAb injections, and neuroprotectors given daily for either 7 or 18 days.
The mice were monitored daily and scored according to the following scale: 0, no clinical signs of EAE; 1, limp tail; 2, partial hind limb paralysis; 3, complete hind limb paralysis; 4, complete hind limb and partial fore limb paralysis; 5, paralysis extending to diaphragm; 6, hind and fore limb paralysis; 7, death due to EAE. Paralysis extending to the diaphragm was denoted as difficulty in remaining upright. […] The daily mean clinical score for each group is the mean disease score of at least five mice. The body weight of animals was measured regularly throughout the experiments. The expanded disability status scale for EAE treated mice was scored using an earlier published scoring system (Villoslada et al. 2000).

[2] = system: C57Bl/6 mice with MOG35-55 peptide-induced EAE; test: Neuropathology scoring of spinal cord sections (pathology status scale); assay type: in vivo, mouse; conditions: for Pathology status scale: Oligodendrocytes** / Pathology status scale: Remyelination**: reverse scores; for Pathology status scale: Axonal damage / Pathology status scale: Demyelination / Pathology status scale: Inflammation: scored 0 to 5
Procedure: as §1, §2
Mice were perfused through the left cardiac ventricle with ice-cold PBS or glutaraldehyde, and the CNS including brain and spinal cord were prepared for frozen or epoxy sections, respectively. Thin slices were taken at all levels of the CNS including spinal cord (cervical, midthoracic, T11, T12/13, upper lumbar, L6, L7 and sacral) and sacral roots. One-μm thick epoxy sections taken from different levels of the spinal cord were stained with toluidine blue, and examined by light microscopy by an investigator blinded to the sample identity. Multiple sections from the spinal cord were scored from 0 to 5 for inflammation, demyelination, remyelination, and axonal necrosis or damage, using a previously published scoring system (Moore et al., 2000).

NS(=O)(=O)c1cccc2c1c([N+](=O)[O-])cc1nc(O)c(O)nc12 [NBQX, 2,3-dihydroxy-6-nitro-7-sulfamoylbenzo(f)quinoxaline]
total scores (disability scale) ([1]; at day 70 as printed, 35 for rat IgG treated control mice): 30 | Maximal disability score: Alertness ([1]; day 55 after immunization): 2 | Maximal disability score: Bladder function ([1]; day 55 after immunization): 0 | Maximal disability score: Eye movements ([1]; day 55 after immunization): 1 | Maximal disability score: Motor (grip)* ([1]; day 55 after immunization): 12 | Maximal disability score: Other signs (shine hairs and loose skin) ([1]; day 55 after immunization): 3 | Maximal disability score: Sensory* Light touch ([1]; day 55 after immunization): 8 | Maximal disability score: Sensory* Pain ([1]; day 55 after immunization): 8 | Maximal disability score: Spontaneous mobility ([1]; day 55 after immunization): 3 | Maximal disability score: Tone* ([1]; day 55 after immunization): 12 | Maximal disability score: Tremor ([1]; day 55 after immunization): 2 | Maximal disability score: Vision (including pupillary reflex) ([1]; day 55 after immunization): 1 | Total expanded disability scale ([1]; day 55 after immunization): 53 | Maximal disability score: Alertness ([1]; day 60 after immunization): 2 | Maximal disability score: Bladder function ([1]; day 60 after immunization): 1 | Maximal disability score: Eye movements ([1]; day 60 after immunization): 1 | Maximal disability score: Motor (grip)* ([1]; day 60 after immunization): 12 | Maximal disability score: Other signs (shine hairs and loose skin) ([1]; day 60 after immunization): 2 | Maximal disability score: Sensory* Light touch ([1]; day 60 after immunization): 8 | Maximal disability score: Sensory* Pain ([1]; day 60 after immunization): 8 | Maximal disability score: Spontaneous mobility ([1]; day 60 after immunization): 3 | Maximal disability score: Tone* ([1]; day 60 after immunization): 12 | Maximal disability score: Tremor ([1]; day 60 after immunization): 2 | Maximal disability score: Vision (including pupillary reflex) ([1]; day 60 after immunization): 1 | Total expanded disability scale ([1]; day 60 after immunization): 53 | Maximal disability score: Alertness ([1]; day 65 after immunization): 1 | Maximal disability score: Bladder function ([1]; day 65 after immunization): 0 | Maximal disability score: Eye movements ([1]; day 65 after immunization): 0 | Maximal disability score: Motor (grip)* ([1]; day 65 after immunization): 4 | Maximal disability score: Other signs (shine hairs and loose skin) ([1]; day 65 after immunization): 0 | Maximal disability score: Sensory* Light touch ([1]; day 65 after immunization): 0 | Maximal disability score: Sensory* Pain ([1]; day 65 after immunization): 0 | Maximal disability score: Spontaneous mobility ([1]; day 65 after immunization): 2 | Maximal disability score: Tone* ([1]; day 65 after immunization): 8 | Maximal disability score: Tremor ([1]; day 65 after immunization): 0 | Maximal disability score: Vision (including pupillary reflex) ([1]; day 65 after immunization): 0 | Total expanded disability scale ([1]; day 65 after immunization): 15 | Maximal disability score: Alertness ([1]; day 70 after immunization): 1 | Maximal disability score: Bladder function ([1]; day 70 after immunization): 0 | Maximal disability score: Eye movements ([1]; day 70 after immunization): 1 | Maximal disability score: Motor (grip)* ([1]; day 70 after immunization): 4 | Maximal disability score: Other signs (shine hairs and loose skin) ([1]; day 70 after immunization): 0 | Maximal disability score: Sensory* Light touch ([1]; day 70 after immunization): 0 | Maximal disability score: Sensory* Pain ([1]; day 70 after immunization): 0 | Maximal disability score: Spontaneous mobility ([1]; day 70 after immunization): 3 | Maximal disability score: Tone* ([1]; day 70 after immunization): 4 | Maximal disability score: Tremor ([1]; day 70 after immunization): 0 | Maximal disability score: Vision (including pupillary reflex) ([1]; day 70 after immunization): 0 | Total expanded disability scale ([1]; day 70 after immunization): 13 | Maximal disability score: Alertness ([1]; day 75 after immunization): 1 | Maximal disability score: Bladder function ([1]; day 75 after immunization): 1 | Maximal disability score: Eye movements ([1]; day 75 after immunization): 0 | Maximal disability score: Motor (grip)* ([1]; day 75 after immunization): 8 | Maximal disability score: Other signs (shine hairs and loose skin) ([1]; day 75 after immunization): 0 | Maximal disability score: Sensory* Light touch ([1]; day 75 after immunization): 4 | Maximal disability score: Sensory* Pain ([1]; day 75 after immunization): 8 | Maximal disability score: Spontaneous mobility ([1]; day 75 after immunization): 3 | Maximal disability score: Tone* ([1]; day 75 after immunization): 4 | Maximal disability score: Tremor ([1]; day 75 after immunization): 0 | Maximal disability score: Vision (including pupillary reflex) ([1]; day 75 after immunization): 1 | Total expanded disability scale ([1]; day 75 after immunization): 30 | Maximal disability score: Alertness ([1]; day 119 after immunization): 1 | Maximal disability score: Bladder function ([1]; day 119 after immunization): 0 | Maximal disability score: Eye movements ([1]; day 119 after immunization): 1 | Maximal disability score: Motor (grip)* ([1]; day 119 after immunization): 4 | Maximal disability score: Other signs (shine hairs and loose skin) ([1]; day 119 after immunization): 2 | Maximal disability score: Sensory* Light touch ([1]; day 119 after immunization): 4 | Maximal disability score: Sensory* Pain ([1]; day 119 after immunization): 4 | Maximal disability score: Spontaneous mobility ([1]; day 119 after immunization): 2 | Maximal disability score: Tone* ([1]; day 119 after immunization): 4 | Maximal disability score: Tremor ([1]; day 119 after immunization): 1 | Maximal disability score: Vision (including pupillary reflex) ([1]; day 119 after immunization): 0 | Total expanded disability scale ([1]; day 119 after immunization): 23 | Pathology status scale: Apoptosis ([2]; day 45): 2 | Pathology status scale: Oligodendrocytes** ([2]; day 45): 2 | Pathology status scale: Remyelination** ([2]; day 45): 3 | Pathology status scale: Axonal damage ([2]; day 45): 2 | Pathology status scale: Demyelination ([2]; day 45): 2 | Pathology status scale: Inflammation ([2]; day 45): 3 | Pathology status scale: Apoptosis ([2]; day 60): 3 | Pathology status scale: Oligodendrocytes** ([2]; day 60): 3 | Pathology status scale: Remyelination** ([2]; day 60): 2 | Pathology status scale: Axonal damage ([2]; day 60): 3 | Pathology status scale: Demyelination ([2]; day 60): 3 | Pathology status scale: Inflammation ([2]; day 60): 3 | Pathology status scale: Apoptosis ([2]; day 65): 2 | Pathology status scale: Oligodendrocytes** ([2]; day 65): 2 | Pathology status scale: Remyelination** ([2]; day 65): 2 | Pathology status scale: Axonal damage ([2]; day 65): 1 | Pathology status scale: Demyelination ([2]; day 65): 2 | Pathology status scale: Inflammation ([2]; day 65): 2 | Pathology status scale: Apoptosis ([2]; day 70): 1 | Pathology status scale: Oligodendrocytes** ([2]; day 70): 1 | Pathology status scale: Remyelination** ([2]; day 70): 2 | Pathology status scale: Axonal damage ([2]; day 70): 1 | Pathology status scale: Demyelination ([2]; day 70): 1 | Pathology status scale: Inflammation ([2]; day 70): 2 | Pathology status scale: Apoptosis ([2]; day 119): 2 | Pathology status scale: Oligodendrocytes** ([2]; day 119): 2 | Pathology status scale: Remyelination** ([2]; day 119): 1 | Pathology status scale: Axonal damage ([2]; day 119): 2 | Pathology status scale: Demyelination ([2]; day 119): 2 | Pathology status scale: Inflammation ([2]; day 119): 1 | Total scores After treatment (pathology status scale) ([2]; sum over the six pathology parameters after treatment): 46 | cumulative scores for inflammation, demyelination, remyelination, apoptosis, oligodendrocyte loss, and axonal damage following treatment ([2]; text statement of Table 2 totals): 46
